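Grown in 96-well plates, cells were treated for 48 hours with each compound at five concentrations. Insufficient inhibition: endpoint recorded as highest concentration tested. TGI is the concentration that stops growth completely.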
What was measured:
Experiment in all cases: growth of human tumour cells (NCI), 48 h
RXF 393 renal = test system: RXF 393 renal
M14 melanoma = test system: M14 melanoma
HOP-62 NSCLC = test system: HOP-62 NSCLC
LXFL 529 NSCLC = test system: LXFL 529 NSCLC
HCT-15 colon = test system: HCT-15 colon
SK-MEL-5 melanoma = test system: SK-MEL-5 melanoma
NCI-H226 lung = test system: NCI-H226 lung
HL-60(TB) leukemia = test system: HL-60(TB) leukemia
RPMI-8226 leukemia = test system: RPMI-8226 leukemia
SW-620 colon = test system: SW-620 colon
SNB-78 CNS = test system: SNB-78 CNS
NCI-H23 lung = test system: NCI-H23 lung
KM20L2 colon = test system: KM20L2 colon
LOX IMVI melanoma = test system: LOX IMVI melanoma
RXF-631 renal = test system: RXF-631 renal
OVCAR-3 ovarian = test system: OVCAR-3 ovarian
UACC-257 melanoma = test system: UACC-257 melanoma
MALME-3M melanoma = test system: MALME-3M melanoma
CCRF-CEM leukemia = test system: CCRF-CEM leukemia
SK-OV-3 ovarian = test system: SK-OV-3 ovarian
ACHN renal = test system: ACHN renal
OVCAR-8 ovarian = test system: OVCAR-8 ovarian
SF-539 CNS = test system: SF-539 CNS
OVCAR-5 ovarian = test system: OVCAR-5 ovarian
M19-MEL melanoma = test system: M19-MEL melanoma
KM12 colon = test system: KM12 colon
CAKI-1 renal = test system: CAKI-1 renal
NCI-H460 lung = test system: NCI-H460 lung
HCT-116 colon = test system: HCT-116 colon
SNB-75 CNS = test system: SNB-75 CNS
COLO 205 colon = test system: COLO 205 colon
U251 CNS = test system: U251 CNS
SNB-19 CNS = test system: SNB-19 CNS
SF-295 CNS = test system: SF-295 CNS
IGROV1 ovarian = test system: IGROV1 ovarian
A549 NSCLC = test system: A549 NSCLC
A498 renal = test system: A498 renal
EKVX NSCLC = test system: EKVX NSCLC
SN12C renal = test system: SN12C renal
786-0 renal = test system: 786-0 renal
K-562 leukemia = test system: K-562 leukemia
SK-MEL-2 melanoma = test system: SK-MEL-2 melanoma
MOLT-4 leukemia = test system: MOLT-4 leukemia
DLD-1 colon = test system: DLD-1 colon
HOP-18 NSCLC = test system: HOP-18 NSCLC
HT29 colon = test system: HT29 colon
HOP-92 NSCLC = test system: HOP-92 NSCLC
DMS 114 small cell lung = test system: DMS 114 small cell lung
OVCAR-4 ovarian = test system: OVCAR-4 ovarian
UACC-62 melanoma = test system: UACC-62 melanoma
SF-268 CNS = test system: SF-268 CNS
SK-MEL-28 melanoma = test system: SK-MEL-28 melanoma
HCC-2998 colon = test system: HCC-2998 colon
UO-31 renal = test system: UO-31 renal
TK-10 renal = test system: TK-10 renal
NCI-H522 lung = test system: NCI-H522 lung
SR leukemia = test system: SR leukemia
XF 498 CNS = test system: XF 498 CNS

`CC(C)(c1ccc(OC#N)cc1)c1ccc(OC#N)cc1` was tested, and the TGI (RXF 393 renal) was > 100 µM, the TGI (M14 melanoma) was > 100 µM and the TGI (HOP-62 NSCLC) was > 100 µM. For the same molecule, the TGI (LXFL 529 NSCLC) was > 100 µM, the TGI (HCT-15 colon) was 39.7 µM and the TGI (SK-MEL-5 melanoma) was > 100 µM. For the same molecule, the TGI (NCI-H226 lung) was > 100 µM, the TGI (HL-60(TB) leukemia) was > 77.7 µM and the TGI (RPMI-8226 leukemia) was > 72.5 µM. For the same molecule, the TGI (SW-620 colon) was > 100 µM, the TGI (SNB-78 CNS) was > 100 µM and the TGI (NCI-H23 lung) was > 100 µM. For the same molecule, the TGI (KM20L2 colon) was > 100 µM, the TGI (LOX IMVI melanoma) was > 70.8 µM and the TGI (RXF-631 renal) was > 100 µM. The TGI (OVCAR-3 ovarian) was > 100 µM, the TGI (UACC-257 melanoma) was > 100 µM and the TGI (MALME-3M melanoma) was > 100 µM. For the same molecule, the TGI (CCRF-CEM leukemia) was > 73.7 µM, the TGI (SK-OV-3 ovarian) was > 100 µM and the TGI (ACHN renal) was > 100 µM. For the same molecule, the TGI (OVCAR-8 ovarian) was > 100 µM, the TGI (SF-539 CNS) was > 100 µM and the TGI (OVCAR-5 ovarian) was > 100 µM. The TGI (M19-MEL melanoma) was > 100 µM, the TGI (KM12 colon) was > 100 µM and the TGI (CAKI-1 renal) was > 100 µM. The TGI (NCI-H460 lung) was > 82.4 µM, the TGI (HCT-116 colon) was > 61 µM and the TGI (SNB-75 CNS) was > 94.7 µM. For the same molecule, the TGI (COLO 205 colon) was > 67.7 µM, the TGI (U251 CNS) was > 100 µM and the TGI (SNB-19 CNS) was > 100 µM. For the same molecule, the TGI (SF-295 CNS) was > 100 µM, the TGI (IGROV1 ovarian) was > 100 µM and the TGI (A549 NSCLC) was > 100 µM. For the same molecule, the TGI (A498 renal) was > 100 µM, the TGI (EKVX NSCLC) was > 100 µM and the TGI (SN12C renal) was > 100 µM. For the same molecule, the TGI (786-0 renal) was > 100 µM, the TGI (K-562 leukemia) was > 100 µM and the TGI (SK-MEL-2 melanoma) was > 100 µM. The TGI (MOLT-4 leukemia) was > 100 µM, the TGI (DLD-1 colon) was > 100 µM and the TGI (HOP-18 NSCLC) was > 100 µM. The TGI (HT29 colon) was > 100 µM, the TGI (HOP-92 NSCLC) was > 100 µM and the TGI (DMS 114 small cell lung) was > 56.9 µM. The TGI (OVCAR-4 ovarian) was > 100 µM, the TGI (UACC-62 melanoma) was > 100 µM and the TGI (SF-268 CNS) was > 100 µM. For the same molecule, the TGI (SK-MEL-28 melanoma) was > 100 µM, the TGI (HCC-2998 colon) was > 100 µM and the TGI (UO-31 renal) was > 100 µM. The TGI (TK-10 renal) was > 100 µM, the TGI (NCI-H522 lung) was > 31.6 µM and the TGI (SR leukemia) was 50.5 µM.
Molecule `COc1cc2cccc(NC(=O)c3cc(OC)c(OC)c(OC)c3Br)c2cc1OC` has a TGI (M14 melanoma) of 23.5 µM, a TGI (HOP-62 NSCLC) of 42.3 µM and a TGI (LXFL 529 NSCLC) of 10.9 µM. For the same molecule, the TGI (SK-MEL-5 melanoma) was 10.6 µM, the TGI (RPMI-8226 leukemia) was 17 µM and the TGI (SW-620 colon) was 71 µM. The TGI (SNB-78 CNS) was 49 µM, the TGI (NCI-H23 lung) was 34.4 µM and the TGI (KM20L2 colon) was > 100 µM. The TGI (OVCAR-3 ovarian) was 47.5 µM, the TGI (UACC-257 melanoma) was 16.7 µM and the TGI (MALME-3M melanoma) was 49.8 µM. It also gave a TGI (CCRF-CEM leukemia) of 21.5 µM, a TGI (SK-OV-3 ovarian) of 59.2 µM and a TGI (ACHN renal) of 75.5 µM. For the same molecule, the TGI (OVCAR-8 ovarian) was 85.4 µM, the TGI (SF-539 CNS) was 46.8 µM and the TGI (OVCAR-5 ovarian) was 51.9 µM. For the same molecule, the TGI (M19-MEL melanoma) was 32.5 µM, the TGI (KM12 colon) was 27.5 µM and the TGI (CAKI-1 renal) was 64.6 µM. It also gave a TGI (NCI-H460 lung) of 36.5 µM, a TGI (HCT-116 colon) of 36.6 µM and a TGI (SNB-75 CNS) of 74.8 µM. For the same molecule, the TGI (XF 498 CNS) was 7.37 µM, the TGI (COLO 205 colon) was 26.6 µM and the TGI (U251 CNS) was 78.9 µM. The TGI (SNB-19 CNS) was > 100 µM, the TGI (SF-295 CNS) was 40.9 µM and the TGI (IGROV1 ovarian) was 44.6 µM. For the same molecule, the TGI (A549 NSCLC) was 46 µM, the TGI (A498 renal) was > 100 µM and the TGI (EKVX NSCLC) was 75.9 µM. For the same molecule, the TGI (SN12C renal) was > 100 µM, the TGI (786-0 renal) was > 100 µM and the TGI (K-562 leukemia) was 46.6 µM. The TGI (SK-MEL-2 melanoma) was 49 µM, the TGI (MOLT-4 leukemia) was 8.81 µM and the TGI (DLD-1 colon) was > 100 µM. For the same molecule, the TGI (HOP-18 NSCLC) was 74.4 µM, the TGI (HT29 colon) was 71.9 µM and the TGI (DMS 114 small cell lung) was 12.8 µM. The TGI (OVCAR-4 ovarian) was 34.3 µM, the TGI (UACC-62 melanoma) was 26.1 µM and the TGI (SF-268 CNS) was 59.3 µM. For the same molecule, the TGI (SK-MEL-28 melanoma) was 41.8 µM, the TGI (HCC-2998 colon) was 85.4 µM and the TGI (UO-31 renal) was 24.2 µM. For the same molecule, the TGI (TK-10 renal) was 92.6 µM and the TGI (NCI-H522 lung) was 42.1 µM.
